This data set concerns CCRIS mutagenicity, Ames/micronucleus/aberration tests. As to the kind of experiment: CCRIS mutagenicity studies.
Where [1] appears, read: Test System: AMES SALMONELLA TYPHIMURIUM, Strain/Indicator: TA98, Metabolic Activation: NONE, Method: STANDARD PLATE.
[2] abbreviates: Test System: AMES SALMONELLA TYPHIMURIUM, Strain/Indicator: TA100, Metabolic Activation: NONE, Method: STANDARD PLATE.

Calls of active or inactive are those of the source. The rule behind the calls is not given here.

Take `O=c1c2ccccc2[nH]c2occc12`: the mutagenic call reads like this: under setting [1], “inactive; negative”; (Test System: AMES SALMONELLA TYPHIMURIUM, Strain/Indicator: TA98, Metabolic Activation: RAT LIVER S-9, PHENOBARTITAL, Method: STANDARD PLATE) “inactive; negative”.
As for `O=Cc1cccc2cccnc12`, the mutagenic call was “inactive; negative” under setting [1]; “inactive; negative” (Test System: AMES SALMONELLA TYPHIMURIUM, Strain/Indicator: TA98, Metabolic Activation: RAT, LIVER, S-9, AROCLOR 1254, Method: STANDARD PLATE); “inactive; negative” under setting [2]; “active; positive” (Test System: AMES SALMONELLA TYPHIMURIUM, Strain/Indicator: TA100, Metabolic Activation: RAT, LIVER, S-9, AROCLOR 1254, Method: STANDARD PLATE); “inactive; negative” (Test System: AMES SALMONELLA TYPHIMURIUM, Strain/Indicator: TA1535, Metabolic Activation: NONE, Method: STANDARD PLATE); “inactive; negative” (Test System: AMES SALMONELLA TYPHIMURIUM, Strain/Indicator: TA1535, Metabolic Activation: RAT, LIVER, S-9, AROCLOR 1254, Method: STANDARD PLATE). The mutagenic call by setting is: (Test System: AMES SALMONELLA TYPHIMURIUM, Strain/Indicator: TA1537, Metabolic Activation: NONE, Method: STANDARD PLATE) “inactive; negative”; (Test System: AMES SALMONELLA TYPHIMURIUM, Strain/Indicator: TA1537, Metabolic Activation: RAT, LIVER, S-9, AROCLOR 1254, Method: STANDARD PLATE) “inactive; negative”.
On to `Cc1ccnc2ccccc12`, for which the mutagenic call is “active; positive” (Test System: AMES SALMONELLA TYPHIMURIUM, Strain/Indicator: TA100, Metabolic Activation: RAT, LIVER, S-9, PHENOBARBITAL AND 5,6-BENZOFLAVONE, Method: PREINCUBATION); “active; positive” (Test System: AMES SALMONELLA TYPHIMURIUM, Strain/Indicator: TA100, Metabolic Activation: RAT, LIVER, S-9, PHENOBARBITAL AND 5,6-NAPHTHOFLAVONE, Method: PREINCUBATION); “active; positive” (Test System: AMES SALMONELLA TYPHIMURIUM, Strain/Indicator: TA100, Metabolic Activation: RAT, LIVER, S-9, Method: PREINCUBATION); “active; positive” (Test System: UDS RODENT HEPATOCYTES, Strain/Indicator: THY INCORP (NON-S-PHASE), Metabolic Activation: NONE, Method: AUTORADIOGRAPHY).
For the molecule `Cc1ccc(NC(=O)N(C)C)cc1Cl`, the mutagenic call reads like this: (Test System: AMES SALMONELLA TYPHIMURIUM, Strain/Indicator: TA98, Metabolic Activation: IMMATURE CARP LIVER S-9, 3-METHYLCHOLANTHRENE, Method: STANDARD PLATE) “inactive; negative”; under setting [1], “inactive; negative”; (Test System: AMES SALMONELLA TYPHIMURIUM, Strain/Indicator: TA100, Metabolic Activation: IMMATURE CARP LIVER S-9, 3-METHYLCHOLANTHRENE, Method: STANDARD PLATE) “inactive; negative”; under setting [2], “inactive; negative”.
Regarding `O=C1CCc2ccccc2O1`, the mutagenic call was “inactive; negative” (Test System: AMES SALMONELLA TYPHIMURIUM, Strain/Indicator: TA98, Metabolic Activation: HAMSTER, LIVER, S-9, AROCLOR 1254 (10%), Method: PREINCUBATION); “inactive; negative” (Test System: AMES SALMONELLA TYPHIMURIUM, Strain/Indicator: TA98, Metabolic Activation: HAMSTER, LIVER, S-9, AROCLOR 1254, Method: PREINCUBATION); “inactive; negative” (Test System: AMES SALMONELLA TYPHIMURIUM, Strain/Indicator: TA98, Metabolic Activation: NONE, Method: PREINCUBATION); “inactive; negative” (Test System: AMES SALMONELLA TYPHIMURIUM, Strain/Indicator: TA98, Metabolic Activation: RAT, LIVER, S-9, AROCLOR 1254 (10%), Method: PREINCUBATION); “inactive; negative” (Test System: AMES SALMONELLA TYPHIMURIUM, Strain/Indicator: TA98, Metabolic Activation: RAT, LIVER, S-9, AROCLOR 1254, Method: PREINCUBATION); “inactive; negative” (Test System: AMES SALMONELLA TYPHIMURIUM, Strain/Indicator: TA100, Metabolic Activation: HAMSTER, LIVER, S-9, AROCLOR 1254 (10%), Method: PREINCUBATION). The mutagenic call (Test System: AMES SALMONELLA TYPHIMURIUM, Strain/Indicator: TA100, Metabolic Activation: HAMSTER, LIVER, S-9, AROCLOR 1254, Method: PREINCUBATION) was “inactive; negative”; the mutagenic call (Test System: AMES SALMONELLA TYPHIMURIUM, Strain/Indicator: TA100, Metabolic Activation: NONE, Method: PREINCUBATION) was “inactive; negative”; the mutagenic call (Test System: AMES SALMONELLA TYPHIMURIUM, Strain/Indicator: TA100, Metabolic Activation: RAT, LIVER, S-9, AROCLOR 1254 (10%), Method: PREINCUBATION) was “inactive; negative”; the mutagenic call (Test System: AMES SALMONELLA TYPHIMURIUM, Strain/Indicator: TA100, Metabolic Activation: RAT, LIVER, S-9, AROCLOR 1254, Method: PREINCUBATION) is “inactive; negative”; the mutagenic call (Test System: AMES SALMONELLA TYPHIMURIUM, Strain/Indicator: TA1535, Metabolic Activation: HAMSTER, LIVER, S-9, AROCLOR 1254 (10%), Method: PREINCUBATION) was “inactive; negative”; the mutagenic call (Test System: AMES SALMONELLA TYPHIMURIUM, Strain/Indicator: TA1535, Metabolic Activation: HAMSTER, LIVER, S-9, AROCLOR 1254, Method: PREINCUBATION) was “inactive; negative”. For the same molecule, the mutagenic call was “inactive; negative” (Test System: AMES SALMONELLA TYPHIMURIUM, Strain/Indicator: TA1535, Metabolic Activation: NONE, Method: PREINCUBATION); “inactive; negative” (Test System: AMES SALMONELLA TYPHIMURIUM, Strain/Indicator: TA1535, Metabolic Activation: RAT, LIVER, S-9, AROCLOR 1254 (10%), Method: PREINCUBATION); “inactive; negative” (Test System: AMES SALMONELLA TYPHIMURIUM, Strain/Indicator: TA1535, Metabolic Activation: RAT, LIVER, S-9, AROCLOR 1254, Method: PREINCUBATION); “inactive; negative” (Test System: AMES SALMONELLA TYPHIMURIUM, Strain/Indicator: TA1537, Metabolic Activation: HAMSTER, LIVER, S-9, AROCLOR 1254 (10%), Method: PREINCUBATION); “inactive; negative” (Test System: AMES SALMONELLA TYPHIMURIUM, Strain/Indicator: TA1537, Metabolic Activation: HAMSTER, LIVER, S-9, AROCLOR 1254, Method: PREINCUBATION); “inactive; negative” (Test System: AMES SALMONELLA TYPHIMURIUM, Strain/Indicator: TA1537, Metabolic Activation: NONE, Method: PREINCUBATION). The mutagenic call (Test System: AMES SALMONELLA TYPHIMURIUM, Strain/Indicator: TA1537, Metabolic Activation: RAT, LIVER, S-9, AROCLOR 1254 (10%), Method: PREINCUBATION) is “inactive; negative” and the mutagenic call (Test System: AMES SALMONELLA TYPHIMURIUM, Strain/Indicator: TA1537, Metabolic Activation: RAT, LIVER, S-9, AROCLOR 1254, Method: PREINCUBATION) was “inactive; negative”.

(Values after PubChem BioAssay AID1259407 (Chemical Carcinogenesis Research Information System (CCRIS), 2018).)
